Assay results as given in patent publication US6423689B1, “Peptidyl calcium channel blockers” (Warner-Lambert Company, priority 1997, dated 2002).

Legend:
[1] = molecular target: T1, L-type Ca2+ channels in A10 cells (Rattus norvegicus, UniProt P22002); assay: Inhibition of L-type calcium flux in A10 cells (FLIPR); assay type: cell-based
T1 construct: which endogenously expresses L-type calcium channels; host or cells: A10 rat aortic smooth muscle cells
Description: Measurement of L-type Ca^2+ Channel Blocking Potencies of Compounds in A10 cells
Calcium flux through voltage-sensitive calcium channels was assessed by time-resolved monitoring of the fluorescence of pre-loaded calcium-sensitive dyes using FLIPR, a fluorescent image plate reader (Molecular Devices Co.). The A10 smooth muscle cell line derived from embryonic thoracic aorta of the DBIX rat (ATCC, CRL-1476) which endogenously expresses L-type calcium channels. The growth media for A10 cells was Ham's F12/DME high glucose (Irvine Scientific, 9052), supplemented with 20% fetal bovine serum (HyClone Labs, A-1115-L), and 1% each of L-glutamine and antibiotic-antimycotic (same source as above).
Cells were grown to confluency and replated on black-sided 96-well plates (Costar, 3603) for use in FLIPR. Two days after replating, growth media was removed and cells were loaded at 37° C. with 100 μL media containing 1 μM Oregon Green 488 Bapta-1 dye (Molecular Probes, O-6807) for 1 to 3 hours. The dye-containing media was then washed away with buffer (composition in mM: 1.25 CaCl2, 1.2 MgSO4, 11 glucose, 10 HEPES, 3.0 KCl, 137.0 NaCl, pH 7.4 with Tris base) in a Denley Cellwash (Labsystems, CW018B). The residual buffer volume was adjusted to 50 μL. A 5 minute drug-pre-incubation period at 35° C. was initiated when 50 μL of drug-containing buffer was pipetted into the cell plate with the 96-well pipettor integrated in the FLIPR apparatus. Fluorescent counts were monitored at 20 second intervals for 360 seconds, beginning 60 seconds prior to the delivery of drug-containing buffer. Following drug addition, 100 μL aliquots of a high K^+, depolarizing stimulus (composition in mM: 1.25 CaCl2, 1.2 MgSO4, 11 glucose, 10 HEPES, 140.0 KCl, pH 7.4 with Tris base) were added to each well and fluorescence was monitored at 1 second intervals for 120 seconds, beginning 10 seconds prior to the stimulus addition. CCD camera exposure time was 0.4 seconds, laser excitation was at 488 nm with a power of 0.2-0.5W, and a 510 to 560 nm bandpass interference filter preceded the camera.
Data was analyzed as a summation of fluorescent counts above basal during the stimulation period (an approximation of area under the curve), after normalizing the data with a spatial uniformity correction (for variations in laser illumination and cell density) and a negative control correction (zero calcium increase defined as the fluorescence reading in the presence of saturating pharmacologic block of the respective calcium channel). Drug effects were expressed as percent inhibition of fluorescence from an average of 8 K^+-stimulated wells which were pre-treated in the drug incubation period with buffer only.
In the A10 cells, the pharmacologic agent used to define zero calcium influx was nitrendipine (RBI, N-144), at a final concentration of 1.0×10^−6 M.

[2] = molecular target: T2, N-type Ca2+ channels in IMR-32 cells (Homo sapiens, UniProt Q00975); assay: Inhibition of N-type calcium flux in IMR-32 cells (Indo-1 fluorescence, nitrendipine present); assay type: cell-based; settings: for inhibition at 1 µM / inhibition at 10 µM: IMR-32; for IC50: IMR-32 cells, 5 μM nitrendipine, K+ depolarization
T2 construct: host or cells: IMR-32 cells, differentiated with dibutyryl cAMP and bromodeoxyuridine
Method in brief: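 Differentiated IMR-32 cells (7–13 days) were loaded with 5 μM Indo-1 AM, preincubated with compound for 10 min at 30° C, and depolarized with KCl/CaCl2 stimulation solution, with 5 μM nitrendipine blocking L-channels. Peak-minus-basal 400/490 nm emission ratio was plotted against drug concentration, and IC50 came from four-parameter logistic fits.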

[3] = system: Na+ channels in superior cervical ganglion (SCG) neurons; assay: Whole-cell voltage clamp, Na+ current in SCG neurons; assay type: cell-based, rat; settings: 10 μM
Method in brief: (§1)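 Acutely dissociated (trypsin) SCG neurons under whole-cell voltage clamp, external NaCl/KCl/HEPES buffer pH 7.4, K-gluconate/KCl pipette. From holding potential −65 to −55 mV, 35 msec steps every 10 sec to 0 mV (peak Na+ current) or +50 mV (sustained K+ current); compounds perfused locally to steady-state block, reported as percent inhibition of control.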

[4] = system: K+ channels in superior cervical ganglion (SCG) neurons; assay: Whole-cell voltage clamp, K+ current in SCG neurons; assay type: cell-based, rat; settings: 10 μM
Method in brief: as §1

[5] = molecular target: T3, N-type Ca2+ channels in superior cervical ganglion (SCG) neurons (Rattus norvegicus, UniProt Q02294); assay: Whole-cell voltage clamp, N-type Ca2+ current in SCG neurons; assay type: cell-based; settings: for IC50: read-out: Inhibition of N-type Ca2+ Current IC50
T3 construct: from tissue
Method in brief: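 Whole-cell voltage clamp of acutely trypsin-dissociated rat SCG neurons, with TEA/choline external solution (2 mM Ca2+) and Cs-methanesulfonate pipette solution. Currents evoked by 150 ms steps to +20 mV from −65 to −55 mV holding, every 40 s; compounds applied locally, effect as % inhibition of control amplitude.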

T3 sequence (Q02294 whole entry): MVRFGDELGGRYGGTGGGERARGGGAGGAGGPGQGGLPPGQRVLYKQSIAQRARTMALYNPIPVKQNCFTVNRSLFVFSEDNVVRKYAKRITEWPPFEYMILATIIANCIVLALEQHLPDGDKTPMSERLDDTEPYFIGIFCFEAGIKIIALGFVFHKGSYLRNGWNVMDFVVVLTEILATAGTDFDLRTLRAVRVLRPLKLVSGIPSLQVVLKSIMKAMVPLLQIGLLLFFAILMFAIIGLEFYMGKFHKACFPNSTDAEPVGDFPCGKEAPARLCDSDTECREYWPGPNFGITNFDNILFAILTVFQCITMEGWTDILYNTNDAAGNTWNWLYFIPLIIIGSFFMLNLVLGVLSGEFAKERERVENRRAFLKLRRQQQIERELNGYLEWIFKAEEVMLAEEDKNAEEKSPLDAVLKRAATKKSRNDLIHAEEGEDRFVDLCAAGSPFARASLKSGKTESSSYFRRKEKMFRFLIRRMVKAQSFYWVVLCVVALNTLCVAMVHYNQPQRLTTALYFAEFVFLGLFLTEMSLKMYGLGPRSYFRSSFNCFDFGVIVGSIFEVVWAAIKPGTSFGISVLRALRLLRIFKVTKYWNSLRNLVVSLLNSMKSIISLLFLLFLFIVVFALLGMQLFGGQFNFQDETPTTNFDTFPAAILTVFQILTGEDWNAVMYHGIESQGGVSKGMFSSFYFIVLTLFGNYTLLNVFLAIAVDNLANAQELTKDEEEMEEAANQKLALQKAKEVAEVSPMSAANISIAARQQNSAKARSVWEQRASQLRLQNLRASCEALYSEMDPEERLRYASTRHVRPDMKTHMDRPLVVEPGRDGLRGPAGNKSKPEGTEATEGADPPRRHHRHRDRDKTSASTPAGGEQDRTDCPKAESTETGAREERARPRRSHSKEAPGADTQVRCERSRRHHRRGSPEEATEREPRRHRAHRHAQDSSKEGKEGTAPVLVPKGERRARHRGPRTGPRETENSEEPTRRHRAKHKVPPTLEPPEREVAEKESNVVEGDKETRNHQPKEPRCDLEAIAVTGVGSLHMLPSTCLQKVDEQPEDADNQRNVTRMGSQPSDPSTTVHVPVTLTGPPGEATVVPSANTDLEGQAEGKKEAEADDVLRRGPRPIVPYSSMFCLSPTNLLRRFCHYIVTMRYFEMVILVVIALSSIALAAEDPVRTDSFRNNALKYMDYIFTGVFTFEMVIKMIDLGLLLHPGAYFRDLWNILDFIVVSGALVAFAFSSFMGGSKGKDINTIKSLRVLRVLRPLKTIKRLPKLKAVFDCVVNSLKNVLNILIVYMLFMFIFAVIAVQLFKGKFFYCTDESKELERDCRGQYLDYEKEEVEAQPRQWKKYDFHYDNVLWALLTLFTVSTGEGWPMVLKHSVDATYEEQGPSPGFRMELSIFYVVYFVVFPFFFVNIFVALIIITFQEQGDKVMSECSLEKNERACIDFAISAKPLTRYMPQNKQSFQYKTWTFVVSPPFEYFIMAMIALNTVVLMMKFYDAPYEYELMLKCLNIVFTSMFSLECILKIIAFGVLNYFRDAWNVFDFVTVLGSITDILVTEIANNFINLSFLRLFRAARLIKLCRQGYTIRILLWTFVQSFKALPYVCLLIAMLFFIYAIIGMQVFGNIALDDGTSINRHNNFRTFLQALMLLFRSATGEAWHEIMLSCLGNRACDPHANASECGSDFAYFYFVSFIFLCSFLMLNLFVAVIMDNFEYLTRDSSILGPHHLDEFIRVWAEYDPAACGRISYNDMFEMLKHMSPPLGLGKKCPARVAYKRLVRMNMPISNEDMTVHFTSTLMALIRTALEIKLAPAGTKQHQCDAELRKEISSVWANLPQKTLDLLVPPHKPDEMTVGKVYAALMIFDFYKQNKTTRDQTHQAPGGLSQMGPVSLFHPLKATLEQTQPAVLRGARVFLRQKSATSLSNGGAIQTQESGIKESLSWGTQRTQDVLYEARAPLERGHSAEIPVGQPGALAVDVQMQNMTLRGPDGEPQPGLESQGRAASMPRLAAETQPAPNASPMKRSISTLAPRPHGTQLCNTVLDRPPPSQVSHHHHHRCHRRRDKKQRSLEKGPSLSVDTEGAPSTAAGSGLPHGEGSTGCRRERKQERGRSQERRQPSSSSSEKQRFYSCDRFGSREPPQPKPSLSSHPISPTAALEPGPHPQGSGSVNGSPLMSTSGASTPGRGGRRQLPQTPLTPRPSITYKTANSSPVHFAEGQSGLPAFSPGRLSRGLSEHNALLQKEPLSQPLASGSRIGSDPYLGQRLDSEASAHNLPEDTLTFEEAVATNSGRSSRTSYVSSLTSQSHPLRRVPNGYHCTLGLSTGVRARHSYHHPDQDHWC
T3 sequence (P54290 25-944 partner limits assumed): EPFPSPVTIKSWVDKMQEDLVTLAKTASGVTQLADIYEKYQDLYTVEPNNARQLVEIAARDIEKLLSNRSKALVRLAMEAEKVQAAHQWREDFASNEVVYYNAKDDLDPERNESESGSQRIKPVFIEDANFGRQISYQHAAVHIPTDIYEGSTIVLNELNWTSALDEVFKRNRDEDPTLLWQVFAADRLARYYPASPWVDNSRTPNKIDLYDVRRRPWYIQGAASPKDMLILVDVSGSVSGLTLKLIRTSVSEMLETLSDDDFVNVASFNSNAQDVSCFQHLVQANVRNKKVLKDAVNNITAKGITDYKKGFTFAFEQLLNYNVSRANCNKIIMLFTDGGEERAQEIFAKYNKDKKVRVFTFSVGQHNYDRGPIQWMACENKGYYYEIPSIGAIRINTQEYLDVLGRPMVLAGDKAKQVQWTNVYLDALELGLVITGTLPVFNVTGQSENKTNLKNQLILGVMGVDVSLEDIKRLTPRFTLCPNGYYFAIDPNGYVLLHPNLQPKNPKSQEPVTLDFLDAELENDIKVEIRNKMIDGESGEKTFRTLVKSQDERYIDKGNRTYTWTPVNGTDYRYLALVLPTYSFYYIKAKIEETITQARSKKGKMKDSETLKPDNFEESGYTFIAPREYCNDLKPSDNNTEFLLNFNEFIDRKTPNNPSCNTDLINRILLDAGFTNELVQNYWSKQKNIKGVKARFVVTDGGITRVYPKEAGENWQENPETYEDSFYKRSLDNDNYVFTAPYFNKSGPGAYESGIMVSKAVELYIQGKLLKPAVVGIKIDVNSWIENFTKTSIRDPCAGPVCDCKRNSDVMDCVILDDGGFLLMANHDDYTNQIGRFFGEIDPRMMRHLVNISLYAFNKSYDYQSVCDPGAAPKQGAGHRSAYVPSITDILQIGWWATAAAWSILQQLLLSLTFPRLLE
T3 sequence (P54290 945-1091 partner limits assumed): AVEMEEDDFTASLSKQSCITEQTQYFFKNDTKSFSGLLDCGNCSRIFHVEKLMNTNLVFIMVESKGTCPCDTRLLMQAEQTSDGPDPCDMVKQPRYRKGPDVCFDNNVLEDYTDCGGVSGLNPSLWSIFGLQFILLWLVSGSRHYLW
T3 sequence (P54287 whole entry partner): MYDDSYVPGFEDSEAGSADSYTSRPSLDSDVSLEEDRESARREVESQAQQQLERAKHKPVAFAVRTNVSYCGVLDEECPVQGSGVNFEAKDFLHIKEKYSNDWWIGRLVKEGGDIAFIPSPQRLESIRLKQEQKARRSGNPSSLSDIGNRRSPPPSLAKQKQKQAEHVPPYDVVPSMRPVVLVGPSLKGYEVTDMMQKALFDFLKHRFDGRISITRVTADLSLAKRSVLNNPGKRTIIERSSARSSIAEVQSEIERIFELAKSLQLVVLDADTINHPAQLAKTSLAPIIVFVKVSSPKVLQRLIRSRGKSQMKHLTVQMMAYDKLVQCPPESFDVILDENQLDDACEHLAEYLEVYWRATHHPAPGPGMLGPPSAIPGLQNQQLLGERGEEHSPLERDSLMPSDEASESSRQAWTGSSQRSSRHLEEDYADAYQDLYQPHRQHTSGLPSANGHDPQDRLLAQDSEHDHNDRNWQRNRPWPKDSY

Row | SMILES | IC50 [1] [µM] | melting point [°C] | Inhibition of Calcium Flux in IMR-32 Cells % Inhibition at 1 μM ([2]; 1 μM) [%] | Inhibition of Calcium Flux in IMR-32 Cells % Inhibition at 10 μM ([2]; 10 μM) [%] | Inhibition of Na+ Current, % Inhibition at 10 μM [3] [%] | Inhibition of K+ Current, % Inhibition at 10 μM [4] [%] | inhibition at 1 µM [2] [%] | inhibition at 10 µM [2] [%] | IC50 [2] [µM] | inhibition at 10 µM [5] [%] | IC50 [5] [µM]
1 | CC(C)C[C@H](NC(=O)N1CCCCCC1)C(=O)N[C@@H](Cc1ccc(CCCN2CCS(=O)(=O)CC2)cc1)C(=O)NC(C)(C)C [Example 150, [S-(R*,R*)]-Azepane-1-carboxylic acid [1-(1-tert-butylcarbamoyl-2-{4-[3-(1,1-dioxo-1l,6-thiomorpholin-4-yl)-propyl]-phenyl}-ethylcarbamoyl)-3-methyl-butyl]-amide] | 3 | 92 to 93 |  |  |  |  |  |  |  |  | 
2 | COc1cc(NC(=O)N[C@@H](CC(C)C)C(=O)N[C@@H](Cc2ccc(OCc3ccccc3)cc2)C(=O)OC(C)(C)C)cc(OC)c1OC (relative stereo) [Example 67, [S-(R*,R*)]-3-(4-Benzyloxy-phenyl)-2-{4-methyl-2-[3-(3,4,5-trimethoxy-phenyl)-ureido]-pentanoylamino}-propionic acid tert-butyl ester] | 3 |  | 10 | 19 |  |  |  |  |  |  | 
3 | CC(C)C[C@H](NC(=O)N1CCCCCC1)C(=O)N[C@@H](Cc1ccc(OC(C)(C)C)cc1)C(=O)OC(C)(C)C [Example 12, [S-(R*,R*)]-2-{2-[(Azepane-1-carbonyl)-amino]-4-methyl-pentanoylamino}-3-(4-tert-butoxy-phenyl)-propionic acid tert-butyl ester] |  | 87 to 90 |  |  | 14 | 38 | 57 | 95 | 0.48 | 65 | 6.78
4 | CC(C)C[C@H](NC(=O)N1CCCCCC1)C(=O)N[C@@H](Cc1ccc(/C=C\C2CCCCC2)cc1)C(=O)NC(C)(C)C [Example 142, [S-(R*,R*),Z]-Azepane-1-carboxylic acid (1-{1-tert-butylcarbamoyl-2-[4-(2-cyclohexyl-vinyl)-phenyl]-ethylcarbamoyl}-3-methyl-butyl)-amide] | 0.68 | 168 to 169 |  |  |  |  |  |  |  |  | 
5 | CC(C)C[C@H](NC(=O)N1CCCCCC1)C(=O)N[C@](C)(Cc1ccc(OCc2ccccc2)cc1)C(=O)OC(C)(C)C [Example 11B, 2(R)-{2(S)-[(Azepane-1-carbonyl)-amino]-4-methyl-pentanoylamino}-3-(4-benzyloxy-phenyl)-2-methyl-propionic acid tert-butyl ester] |  | 62 to 66 |  |  | 48 | 46 | 35 | 80 | 2.3 | 17 | 
6 | CC(C)C[C@H](NS(=O)(=O)c1ccc(C(C)C)cc1)C(=O)N[C@@H](Cc1ccc(OCc2ccccc2)cc1)C(=O)OC(C)(C)C [Example 37, [S-(R*,R*)]-3-(4-Benzyloxy-phenyl)-2(S)-[2(S)-(4-isopropyl-benzenesulfonylamino)-4-methyl-pentanoylamino]-propionic acid tert-butyl ester] |  | 147 to 148 |  |  | 5 | 9 | 65 | 91 | 0.28 |  | 
7 | CCC(C)[C@H](NC(=O)N1CCCCCC1)C(=O)N[C@@H](Cc1ccc(OCc2ccccc2)cc1)C(=O)OC(C)(C)C (stereo partly drawn) [Example 5, (S)-2-{(S)-2-[(Azepane-1-carbonyl)-amino]-3-methyl-pentanoylamino}-3-(4-benzyloxy-phenyl)-propionic acid tert-butyl ester] |  | 53 to 57 |  |  | 10 | 13 | 60 | 94 | 0.82 | 70 | 0.62
8 | CC(C)C[C@H](NC(=O)N1CCCCCC1)C(=O)N[C@@H](Cc1ccc(C#Cc2ccccn2)cc1)C(=O)NC(C)(C)C [Example 137, [S-(R*,R*)]-Azepane-1-carboxylic acid {1-[1-tert-butylcarbamoyl-2-(4-pyridin-2-ylethynyl-phenyl)-ethylcarbamoyl]-3-methyl-butyl}-amide] | 2.6 |  |  |  |  |  |  |  |  |  | 
9 | CC(C)C[C@H](NC(=O)N1CCCCCC1)C(=O)N[C@@H](Cc1ccc(C#CCN2CCS(=O)(=O)CC2)cc1)C(=O)NC(C)(C)C [Example 140, [S-(R*,R*)]-Azepane-1-carboxylic acid [1-(1-tert-butylcarbamoyl-2-{4-[3-(1,1-dioxo-1l,6-thiomorpholin-4-yl)-prop-1-ynyl]-phenyl}-ethylcarbamoyl)-3-methyl-butyl]-amide] | 3 | 117 to 118 |  |  |  |  |  |  |  |  | 
10 | CC(C)C[C@H](NS(=O)(=O)N1CCCCCC1)C(=O)N[C@@H](Cc1ccc(OCc2ccccc2)cc1)C(=O)OC(C)(C)C [Example 40, [S-(R*,R*)]-2-[2-(Azepane-1-sulfonylamino)-4-methyl-pentanoylamino]-3-(4-benzyloxy-phenyl)-propionic acid tert-butyl ester] |  | 123 to 124 |  |  |  |  | 48 | 86 | 1 |  | 
11 | CC(C)C[C@H](NS(=O)(=O)N1CCCCC1)C(=O)N[C@@H](Cc1ccc(OCc2ccccc2)cc1)C(=O)OC(C)(C)C [Example 41, [S-(R*,R*)]-3-(4-Benzyloxy-phenyl)-2-[4-methyl-2-(piperidine-1-sulfonylamino)-pentanoylamino]-propionic acid tert-butyl ester] |  | 125 to 126 |  |  |  |  | 51 | 86 | 0.8 |  | 
12 | COC(=O)[C@H](Cc1ccc(OCc2ccccc2)cc1)NC(=O)[C@H](CC(C)C)NC(=O)N1CCCCCC1 [Example 15, [S-(R*,R*)]-2-{2-[(Azepane-1-carbonyl)-amino]-4-methyl-pentanoylamino}-3-(4-benzyloxy-phenyl)-propionic acid methyl ester] |  | 72 to 74 |  |  |  |  | 45 | 99 | 1.1 |  | 
13 | CC(C)C[C@H](NC(=O)N1CCCCCC1)C(=O)N[C@@H](Cc1ccc(OCc2ccccc2)cc1)C(=O)NCCN1CCOCC1 [Example 186, [S-(R*,R*)]-Azepane-1-carboxylic acid {1-[2-(4-benzyloxy-phenyl)-1-(2-morpholin-4-ylethylcarbamoyl)-ethylcarbamoyl]-3-methyl-butyl}-amide] | 3 |  |  |  |  |  |  |  | 1.8 |  | 
14 | CC(C)C[C@H](NS(=O)(=O)N1CCOCC1)C(=O)N[C@@H](Cc1ccc(OCc2ccccc2)cc1)C(=O)OC(C)(C)C [Example 42, [S-(R*,R*)]-3-(4-Benzyloxy-phenyl)-2-[4-methyl-2-(morpholine-4-sulfonylamino)-pentanoylamino]-propionic acid tert-butyl ester] |  | 54 to 57 |  |  |  |  | 50 | 95 | 0.95 | 64 | 
